We go through four compounds from patent publication US20230295152A1 (SENDA BIOSCIENCES, INC., priority 2019, published 2023).

Some results are limits rather than exact numbers.

A short description of data set [1]: Plasma Protein Binding with Ultracentrifugation Method, rat. Type of data set: in vitro ADME. Conditions: for fraction unbound at 30 min, 1 μM: rat plasma, read-out: Rat plasma protein binding (% bound); for fraction unbound at 5.5 h, 1 μM: rat, plasma, read-out: Plasma Protein Binding PPB (r) % (converted). The method, then: The frozen plasma (stored at −80° C.) was thawed in a 37° C. water bath, followed by centrifugation at 3,220 g for 10 minutes to remove clots. The supernatant was removed into a new tube as the spun plasma. The spun plasma was pre-warmed in a 37° C. water bath for 10 minutes. The stock solutions of test compounds were diluted to 200 μM in DMSO, and then spiked into the plasma. Duplicate samples were prepared. The final concentration of compound was 1.0 μM. The final concentration of organic solvent was 0.5%. Warfarin was used as positive control in the assay. 1.0 mL of the spiked plasma was transferred to a new balance ultracentrifuge tube. Samples were incubated at 37° C., 5% CO2 for 30 minutes. After incubation, the balance ultracentrifuge tubes were centrifuged at 600,000 g for 5.5 hours at 37° C. After centrifugation, 50 μL solution was removed from the center of the ultracentrifuge tubes as the post-ultracentrifugation samples, followed by the addition of 50 μL blank plasma and 400 μL quench solution (acetonitrile containing internal standards (IS, 100 nM Alprazolam, 500 nM Labetalol and 2 μM Ketoprofen)) to precipitate protein and release compounds. Samples were vortexed for 2 minutes, followed by centrifugation at 20,000 g for 15 minutes at room temperature. The supernatant was diluted with ultrapure water and then used for LC-MS/MS analysis. Stability samples was prepared by transferring 50 μL of the spiked plasma to 0.6 mL tubes and incubated at 37° C., 5% CO2 for 0.5 and 6 hours. After incubation, 50 μL PBS (100 mM, pH7.4) and 400 μL quench solution were added to the stability samples. And then stability samples were treated the same way as the post-ultracentrifugation samples. The supernatant was diluted with ultrapure water and then used for LC-MS/MS analysis. 0.5 hour time point samples were also used as no-spun controls. Time 0 samples were prepared by transferring 50 μL spiked plasma to 0.6 mL tubes containing 50 μL PBS, followed by the addition of 400 μL quench solution to precipitate protein and release compound. And then these samples were treated the same way as the post-ultracentrifugation samples. The supernatant was diluted with ultrapure water and then used for LC-MS/MS analysis.
(§1) Data Analysis: All calculations were carried out using Microsoft Excel. The concentrations of test compound in plasma samples and post-ultracentrifugation plasma was determined from peak areas. The percentages of test compound bound was calculated as follows: […]
“+++” indicates a % bound value less than 50, “++” indicates a % bound value between 50 and 75, and “+” indicates a % bound value above 75.

In data set [2] the test system is CT26 cells implanted subcutaneously into Balb/c mice. Put plainly: CT26 syngeneic colon cancer model, AhR antagonist with PD-L1 antibody. Type of data set: in vivo. Particulars: for Cmin: CT26 model, dose 10 mg/kg.
Assay in data set [3]: as above
The class given is in vivo. Conditions: female, Balb/c, mouse, in vivo, po; CT26 model, dose 10 mg/kg.

Data set [4] can be described thus: Suspension Monkey heps ClInt. The class given is in vitro ADME. Particulars: @1 and 0.1 mM. The text has this:
Compound Nos. 9 and 46 have the following in vitro DMPK profiles.

A short description of data set [5]: Plasma Protein Binding, dog. Type of data set: in vitro ADME. Particulars: read-out: Plasma Protein Binding PPB (d) % (converted). The method, then:
(§2) Example 10: Plasma Protein Binding Determination with Ultracentrifugation Method
(§3) The frozen plasma (stored at −80° C.) was thawed in a 37° C. water bath, followed by centrifugation at 3,220 g for 10 minutes to remove clots. The supernatant was removed into a new tube as the spun plasma. The spun plasma was pre-warmed in a 37° C. water bath for 10 minutes. The stock solutions of test compounds were diluted to 200 μM in DMSO, and then spiked into the plasma. Duplicate samples were prepared. The final concentration of compound was 1.0 μM. The final concentration of organic solvent was 0.5%. Warfarin was used as positive control in the assay. 1.0 mL of the spiked plasma was transferred to a new balance ultracentrifuge tube. Samples were incubated at 37° C., 5% CO2 for 30 minutes. After incubation, the balance ultracentrifuge tubes were centrifuged at 600,000 g for 5.5 hours at 37° C. […]
as §1

Data set [6] in a line: Plasma Protein Binding, monkey. The class given is in vitro ADME. Particulars: read-out: Plasma Protein Binding PPB (mon) % (converted). The method, then: as §2, §3, §1
A further data set concerns CYP. Put plainly: CYP Inhibition (in vitro DMPK profile, Table 52). Type of data set: in vitro ADME. The method, then: Example 11: CYP Inhibition Assay
Stock solutions of test compounds were prepared in DMSO at the concentrations of 10 mM. Stock solution was diluted to 2 mM with acetonitrile. The final concentration of test compounds was 10 μM. For the stock solution preparation, if the positive control could not be well dissolved in the mixture of DMSO and acetonitrile (1:4) at the highest concentration, another mixture of acetonitrile and DMSO, the mixture of acetonitrile and H2O or DMSO will be used to dissolve the compound.
Data Analysis: The automatic peak integration areas are checked for all the samples. The Analyte Peak Area and Internal Standard Peak Area are exported into excel spreadsheet. The inhibition of each P450 enzyme in human liver microsomes is measured as the percentage decrease in the activity of marker metabolite formation compared to non-inhibited controls (=100% activity).

In the case of `C[C@@H](CO)n1cnc2c(-c3cccc(F)c3)nc(-c3ccc(Cl)cc3)cc2c1=O` [Compound 7], in data set [1], the fraction unbound at 30 min, 1 μM is < 0.25. In addition, the “tumor volume, coadministration with PD-L1 antibody” value (“tumor volume, coadministration” below) in data set [2] (FIG. 2, 3 mg/kg p.o. once a day over 14 days with anti-PD-L1 antibody 10 mg/kg IP every 3 days, p=0.0039 (Mann-Whitney)) is recorded as “reduction in tumor volume”. Further, the “tumor weight upon termination of study, coadministration with PD-L1 antibody” value (“tumor weight upon termination of study” for short) in data set [2] (FIG. 3, 3 mg/kg p.o. once a day over 14 days with anti-PD-L1 antibody 10 mg/kg IP every 3 days, p=0.041 (Mann-Whitney)) was “reduction in tumor weight”.

Consider `CC(C)(O)Cn1cnc2c(-c3cccnc3)nc(-c3ccc(C(F)(F)F)nc3)cc2c1=O` [Compound 9], for which the fraction unbound at 30 min, 1 μM in data set [1] was < 0.25. The results for the fraction unbound at 5.5 h, 1 μM in data set [1], in data set [5] and in data set [6] were 0.098, 0.124 and 0.149, respectively. Further, the concentration in data set [3] peaked (Cmax) at 4.96 µM. In data set [2] (10 mg/kg or 1 mg/kg p.o. once a day over 14 days with anti-PD-L1 antibody 10 mg/kg IP every 3 days), the “tumor volume and weight, combination with PD-L1 compared to PD-L1 alone (overall)” value is “decreases tumor volume and weight compared to PD-L1 alone”. Further, the Cmin in data set [2] came to 849 nm. Besides, the “tumor volume, coadministration” value in data set [2] (FIG. 8, 10 mg/kg p.o. once a day over 14 days with anti-PD-L1 antibody 10 mg/kg IP every 3 days, p=0.0070 (Mann-Whitney)) was “reduction in tumor volume”; in data set [2] (FIG. 10, 1 mg/kg p.o. once a day over 14 days with anti-PD-L1 antibody 10 mg/kg IP every 3 days, p=0.0039 (Kruskal Wallis, Dunn's)) it was “reduction in tumor volume”. In addition, the “tumor weight upon termination of study” value in data set [2] (FIG. 9, p.o. once a day over 14 days with anti-PD-L1 antibody 10 mg/kg IP every 3 days, p=0.0114 (Mann-Whitney)) is “reduction in tumor weight”; in data set [2] (FIG. 11, p.o. once a day over 14 days with anti-PD-L1 antibody 10 mg/kg IP every 3 days, p=0.0029 (Kruskal Wallis, Dunn's)), “reduction in tumor weight”. In data set [4], the “Suspension Monkey heps ClInt (% Qh)” value is <24 (@1 and % Qh. For the same compound, the “CYP Inhibition” value in the data set on CYP is listed as “Negative”.

Turning to `C[C@H](n1cnc2c(-c3cnn(C)c3)nc(-c3ccc(Cl)cc3)cc2c1=O)C(C)(C)O` [Compound 30], the fraction unbound at 30 min, 1 μM in data set [1] is < 0.25. The compound also registered a Cmax in data set [3] of 5.88 µM. Besides, in data set [2], the Cmin was 1,725 nm. For the same compound, the “tumor volume, coadministration” value in data set [2] (FIG. 4, 10 mg/kg p.o. once a day over 14 days with anti-PD-L1 antibody 10 mg/kg IP every 3 days, p=0.039 (Mann-Whitney)) is given as “reduction in tumor volume”; in data set [2] (FIG. 6, 10 mg/kg p.o. once a day over 14 days with anti-PD-L1 antibody 10 mg/kg IP every 3 days, p=0.350 (Kruskal Wallis, Dunn's)), “reduction in tumor volume”. Moreover, the “tumor weight upon termination of study” value in data set [2] (FIG. 5, 10 mg/kg p.o. once a day over 14 days with anti-PD-L1 antibody 10 mg/kg IP every 3 days, p=0.067 (Mann-Whitney)) is “reduction in tumor weight”; in data set [2] (FIG. 7, 10 mg/kg p.o. once a day over 14 days with anti-PD-L1 antibody 10 mg/kg IP every 3 days, p=0.0004 (Kruskal Wallis, Dunn's)), “reduction in tumor weight”.

Turning to `C[C@@H](CO)n1cnc2c(-c3cccnc3)nc(-c3ccc(C(F)(F)F)cn3)cc2c1=O` [Compound 46, (S)-3-(1-hydroxypropan-2-yl)-8-(pyridin-3-yl)-6-(5-(trifluoromethyl)pyridin-2-yl)pyrido[3,4-d]pyrimidin-4(3H)-one], the fraction unbound at 30 min, 1 μM in data set [1] is < 0.25. The results for the fraction unbound at 5.5 h, 1 μM in data set [1], in data set [5] and in data set [6] were 0.102, 0.11 and 0.113, respectively. The compound also came in with a Cmax in data set [3] of 17.3 µM. Further, the Cmin in data set [2] is given as 12,350 nm. Besides, the “tumor volume, coadministration” value in data set [2] (FIG. 12, 10 mg/kg p.o. once a day over 14 days with anti-PD-L1 antibody 10 mg/kg IP every 3 days) is listed as “reduction in tumor volume”. In addition, the “tumor weight upon termination of study” value in data set [2] (FIG. 13, 10 mg/kg p.o. once a day over 14 days with anti-PD-L1 antibody 10 mg/kg IP every 3 days) is reported as “reduction in tumor weight”. The “Suspension Monkey heps ClInt (% Qh)” value in data set [4] is <24 (@1 and % Qh. Further, the “CYP Inhibition” value in the data set with CYP was “Negative”.

Usually Cmax stands for the maximum level reached in the sampled fluid or tissue.
